Reference: patent US7371762B2, “3-substituted 6,7-dihydroxytetrahydroisoquinoline derivatives for use as antibacterial agents” (Arpida AG, priority 2001, dated 2008)
≈ marks a conversion by molar mass, not a printed value.

What was measured:
Test in all cases: Minimal inhibitory concentration (MIC), NCCLS M7-A5 procedure
Format in all cases: cell-based
Escherichia coli DC2 = details: read-out: Minimal inhibitory concentration (MIC) EC DC2
Method: (§1) Minimal inhibitory concentrations (MIC) were determined in accordance with the National Committee for Clinical Laboratory Standards (NCCLS) procedure [M7-A5, 2001].
(§2) The results obtained are summarized in table 1 and are expressed in jig/ml. In this table 1, EC 25922 means Escherichia coli ATCC25922, EC DC2 means Escherichia coli DC2, SA 25923 means Staphylococcus aureus ATCC25923 and SA 101 means Staphylococcus aureus 101. (ATCC=American Type Culture Collection)
(§3) M7-A5* (2001): Methods for Dilution Antimicrobial Susceptibility Tests for Bacteria that Grow Aerobically; Approved Standard—Fifth Edition American National Standard.

[1] = tested on: Staphylococcus aureus ATCC25923; details: read-out: Minimal inhibitory concentration (MIC) SA 25923
Method: as §1, §2, §3

[2] = tested on: Staphylococcus aureus 101; details: read-out: Minimal inhibitory concentration (MIC) SA 101
Method: as §1, §2, §3

[3] = tested on: Escherichia coli ATCC25922; details: read-out: Minimal inhibitory concentration (MIC) EC 25922
Method: as §1, §2, §3

Structure (SMILES) | MIC (Escherichia coli DC2) [µg/mL] | MIC [1] [µg/mL] | MIC [2] [µg/mL] | MIC [3] [µg/mL]
COc1ccc(C2Cc3cc(O)c(O)cc3CN2)c2ccccc12 (stereo not shown) [Example 4, 3-(4-Methoxy-naphthalen-1-yl)-1,2,3,4-tetrahydro-isoquinoline-6,7-diol] | 32 (≈ 99.6 µM) | 32 (≈ 99.6 µM) | – | –
Oc1cc2c(cc1O)CC(c1ccc3oc4ccccc4c3c1)NC2 (stereo not shown) [Example 7, 3-Dibenzofuran-2-yl-1,2,3,4-tetrahydro-isoquinoline-6,7-diol] | 32 (≈ 96.6 µM) | 8 (≈ 24.1 µM) | 16 (≈ 48.3 µM) | 64 (≈ 193 µM)
Oc1ccc(-c2ccc(C3Cc4cc(O)c(O)cc4CN3)cc2)cc1 (stereo not shown) [Example 19, 3-(4′-Hydroxy-biphenyl-4-yl)-1,2,3,4-tetrahydro-isoquinoline-6,7-diol] | 64 (≈ 192 µM) | 128 (≈ 384 µM) | 128 (≈ 384 µM) | > 128
Oc1cc2c(cc1O)CC(c1ccc(O)c3ccccc13)NC2 (stereo not shown) [Example 5, 3-(4-Hydroxy-naphthalen-1-yl)-1,2,3,4-tetrahydro-isoquinoline-6,7-diol] | 16 (≈ 52.1 µM) | 32 (≈ 104 µM) | – | –
Oc1cc2c(cc1O)CN(Cc1ccccc1)C(c1ccc(Oc3ccccc3)cc1)C2 (stereo not shown) [Example 2, 2-Benzyl-3-(4-phenoxy-phenyl)-1,2,3,4-tetrahydro-isoquinoline-6,7-diol] | 64 (≈ 151 µM) | 64 (≈ 151 µM) | 32 (≈ 75.6 µM) | > 128
Oc1cc2c(cc1O)CN(Cc1ccccc1)C(COc1ccc(Cl)cc1Cl)C2 (stereo not shown) [Example 11, 2-Benzyl-3-(2,4-dichloro-phenoxymethyl)-1,2,3,4-tetrahydro-isoquinoline-6,7-diol] | > 128 | 8 (≈ 18.6 µM) | 8 (≈ 18.6 µM) | > 128
Oc1cc2c(cc1O)CC(COc1cc(Cl)ccc1Cl)NC2 (stereo not shown) [Example 14, 3-(2,5-Dichloro-phenoxymethyl)-1,2,3,4-tetrahydro-isoquinoline-6,7-diol] | 32 (≈ 94.1 µM) | 64 (≈ 188 µM) | 64 (≈ 188 µM) | 128 (≈ 376 µM)
Oc1cc2c(cc1O)CC(c1ccc(-c3ccc(F)cc3F)cc1)NC2 (stereo not shown) [Example 21, 3-(2′,4′-Difluoro-biphenyl-4-yl)-1,2,3,4-tetrahydro-isoquinoline-6,7-diol] | 8 (≈ 22.6 µM) | 8 (≈ 22.6 µM) | 8 (≈ 22.6 µM) | 32 (≈ 90.6 µM)
OCC1Cc2cc(O)c(O)cc2CN1 (stereo not shown) [Example 6, 3-Hydroxymethyl-1,2,3,4-tetrahydro-isoquinoline-6,7-diol] | 32 (≈ 164 µM) | 16 (≈ 82 µM) | 16 (≈ 82 µM) | 64 (≈ 328 µM)
Oc1cc2c(cc1O)CC(COc1ccc(Cl)c(Cl)c1)NC2 (stereo not shown) [Example 13, 3-(3,4-Dichloro-phenoxymethyl)-1,2,3,4-tetrahydro-isoquinoline-6,7-diol] | 16 (≈ 47 µM) | 16 (≈ 47 µM) | 16 (≈ 47 µM) | > 128
N#Cc1cccc(-c2ccc(C3Cc4cc(O)c(O)cc4CN3)cc2)c1 (stereo not shown) [Example 22, 4′-(6,7-Dihydroxy-1,2,3,4-tetrahydro-isoquinolin-3-yl)-biphenyl-3-carbonitrile] | 64 (≈ 187 µM) | 128 (≈ 374 µM) | > 128 | > 128
Oc1cc2c(cc1O)CC(c1ccc(-c3ccc(C(F)(F)F)cc3)cc1)NC2 (stereo not shown) [Example 17, 3-(4′-Trifluoromethyl-biphenyl-4-yl)-1,2,3,4-tetrahydro-isoquinoline-6,7-diol] | 8 (≈ 20.8 µM) | 4 (≈ 10.4 µM) | 8 (≈ 20.8 µM) | 64 (≈ 166 µM)
CC1NC(c2ccc(Oc3ccccc3)cc2)Cc2cc(O)c(O)cc21 (stereo not shown) [Example 3, 1-Methyl-3-(4-phenoxy-phenyl)-1,2,3,4-tetrahydro-isoquinoline-6,7-diol] | 32 (≈ 92.1 µM) | 16 (≈ 46.1 µM) | – | –
Oc1cc2c(cc1O)CC(c1ccc(Br)cc1)NC2 (stereo not shown) [Example 16, 3-(4-Bromo-phenyl)-1,2,3,4-tetrahydro-isoquinoline-6,7-diol] | 32 (≈ 99.9 µM) | 8 (≈ 25 µM) | 64 (≈ 200 µM) | > 128
Oc1cc2c(cc1O)CC(c1ccc(-c3ccccc3O)cc1)NC2 (stereo not shown) [Example 20, 3-(2′-Hydroxy-biphenyl-4-yl)-1,2,3,4-tetrahydro-isoquinoline-6,7-diol] | 32 (≈ 96 µM) | 16 (≈ 48 µM) | 32 (≈ 96 µM) | 128 (≈ 384 µM)
Oc1cc2c(cc1O)CC(c1ccc(Cl)cc1)NC2 (stereo not shown) [Example 15, 3-(4-Chloro-phenyl)-1,2,3,4-tetrahydro-isoquinoline-6,7-diol] | 32 (≈ 116 µM) | 16 (≈ 58 µM) | 32 (≈ 116 µM) | 128 (≈ 464 µM)
Oc1cc2c(cc1O)CC(c1ccc(Cl)cc1Cl)NC2 (stereo not shown) [Example 9, 3-(2,4-Dichloro-phenyl)-1,2,3,4-tetrahydro-isoquinoline-6,7-diol] | 64 (≈ 206 µM) | 64 (≈ 206 µM) | 64 (≈ 206 µM) | 128 (≈ 413 µM)
Oc1cc2c(cc1O)CC(c1ccc(-c3ccccc3)cc1)NC2 (stereo not shown) [Example 12, 3-Biphenyl-4-yl-1,2,3,4-tetrahydro-isoquinoline-6,7-diol] | 8 (≈ 25.2 µM) | 4 (≈ 12.6 µM) | 16 (≈ 50.4 µM) | 16 (≈ 50.4 µM)
Oc1cc2c(cc1O)CC(c1ccc(Oc3ccccc3)cc1)NC2 (stereo not shown) [Example 1, 3-(4-Phenoxy-phenyl)-1,2,3,4-tetrahydro-isoquinoline-6,7-diol] | 8 (≈ 24 µM) | 8 (≈ 24 µM) | 8 (≈ 24 µM) | 32 (≈ 96 µM)
Oc1cc2c(cc1O)CC(c1ccc(Sc3ccccc3)cc1)NC2 (stereo not shown) [Example 8, 3-(4-Phenylsulfanyl-phenyl)-1,2,3,4-tetrahydro-isoquinoline-6,7-diol] | 32 (≈ 91.6 µM) | 8 (≈ 22.9 µM) | 32 (≈ 91.6 µM) | 64 (≈ 183 µM)
Oc1cc2c(cc1O)CC(COc1ccc(Cl)cc1Cl)NC2 (stereo not shown) [Example 10, 3-(2,4-Dichloro-phenoxymethyl)-1,2,3,4-tetrahydro-isoquinoline-6,7-diol] | 2 (≈ 5.88 µM) | 8 (≈ 23.5 µM) | 16 (≈ 47 µM) | 128 (≈ 376 µM)
CN(C)c1ccc(-c2ccc(C3Cc4cc(O)c(O)cc4CN3)cc2)cc1 (stereo not shown) [Example 18, 3-(4′-Dimethylamino-biphenyl-4-yl)-1,2,3,4-tetrahydro-isoquinoline-6,7-diol] | 8 (≈ 22.2 µM) | 4 (≈ 11.1 µM) | 16 (≈ 44.4 µM) | > 128
